# Values of other authors, collected in US6703045B2, “Composition and method for maintaining blood glucose level” (Council of Scientific & Industrial Research, priority 2001, dated 2004).
# [1] = approximate incidence in patients
smiles,measurement,setting,value
"Cc1cnc(C(=O)NCCc2ccc(S(=O)(=O)NC(=O)NC3CCCCC3)cc2)cn1 [Glipizide, 1-cyclohexyl-3-[[p-[2-(5-methylpyrazinecarboxamido)ethyl]phenyl]sulfonyl] urea]",incidence of constipation and gastralgia,[1],one in one hundred
same,incidence of nausea and diarrhea,[1],one in seventy
same,"incidence of dizziness, drowsiness, and headache (each)",patients,about one in fifty
